Test results taken from the supplement of paper PMC10307832.

Legend:
Test in all cases: relative viability (nuclei count vs DMSO), 5 days (fraction); higher = more cells survive
[1] = system: LCLC-97TM1
Outline: (§1)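 Lung cancer cell lines were pin-tool dosed in 1536-well plates on the day after seeding, with either a lone drug or a fixed anchor-drug dose plus five library-drug doses (not always all listed) in √10 steps. Nuclei were counted on 4× images after 5 days. Relative viability is the ratio of treated-well to vehicle-well nuclei counts, with each value a median of duplicate plates.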

[2] = system: NCI-H2085
Outline: as §1

[3] = system: NCI-H1944
Outline: as §1

[4] = system: NCI-H3122
Outline: as §1

[5] = system: NCI-H1666
Outline: as §1

[6] = system: NCI-H441
Outline: as §1

[7] = system: NCI-H2087
Outline: as §1

[8] = system: NCI-H2126
Outline: as §1

[9] = system: EPLC-272H
Outline: as §1

[10] = system: COR-L23
Outline: as §1

[11] = system: HCC-78
Outline: as §1

[12] = system: LXF-289
Outline: as §1

[13] = system: NCI-H1793
Outline: as §1

[14] = system: ChaGo-K-1
Outline: as §1

[15] = system: PC-14
Outline: as §1

[16] = system: HOP-62
Outline: as §1

[17] = system: NCI-H1437
Outline: as §1

[18] = system: NCI-H1650
Outline: as §1

[19] = system: NCI-H596
Outline: as §1

[20] = system: HARA
Outline: as §1

[21] = system: NCI-H1395
Outline: as §1

[22] = system: H3255
Outline: as §1

Work on CN1CCN(CCOc2cc(OC3CCOCC3)c3c(Nc4c(Cl)ccc5c4OCO5)ncnc3c2)CC1 [Saracatinib] + CC1(C)CCC(c2ccc(Cl)cc2)=C(CN2CCN(c3ccc(C(=O)NS(=O)(=O)c4ccc(N[C@H](CCN5CCOCC5)CSc5ccccc5)c(S(=O)(=O)C(F)(F)F)c4)cc3)CC2)C1 [Navitoclax] (partner 0.5 µM) yielded a relative viability ([1]; first compound 0.02 µM) of 0.422, a relative viability ([1]; first compound 0.2 µM) of 0.356 and a relative viability ([1]; first compound 0.6325 µM) of 0.501. For the same compound, the relative viability ([1]; first compound 2 µM) was 0.46, the relative viability ([2]; first compound 0.02 µM) was 1.12 and the relative viability ([2]; first compound 0.2 µM) was 1.05. It also gave a relative viability ([2]; first compound 0.6325 µM) of 1.19, a relative viability ([2]; first compound 2 µM) of 1.07 and a relative viability ([3]; first compound 0.02 µM) of 1.14. It also gave a relative viability ([3]; first compound 0.6325 µM) of 0.974, a relative viability ([3]; first compound 2 µM) of 0.718 and a relative viability ([4]; first compound 0.02 µM) of 1.02. The relative viability ([4]; first compound 0.6325 µM) was 0.942, the relative viability ([4]; first compound 2 µM) was 0.838 and the relative viability ([5]; first compound 0.02 µM) was 1.04. For the same compound, the relative viability ([5]; first compound 0.2 µM) was 0.928, the relative viability ([5]; first compound 0.6325 µM) was 1.06 and the relative viability ([5]; first compound 2 µM) was 0.667. For the same compound, the relative viability ([6]; first compound 0.02 µM) was 0.566, the relative viability ([6]; first compound 0.2 µM) was 0.681 and the relative viability ([6]; first compound 0.6325 µM) was 0.832. It also gave a relative viability ([6]; first compound 2 µM) of 0.624, a relative viability ([7]; first compound 0.02 µM) of 1.03 and a relative viability ([7]; first compound 0.2 µM) of 1.04. The relative viability ([7]; first compound 0.6325 µM) was 1.14, the relative viability ([7]; first compound 2 µM) was 1.05 and the relative viability ([8]; first compound 0.02 µM) was 0.876. The relative viability ([8]; first compound 0.2 µM) was 0.747, the relative viability ([8]; first compound 0.6325 µM) was 0.887 and the relative viability ([8]; first compound 2 µM) was 0.684. The relative viability ([9]; first compound 0.02 µM) was 1.19, the relative viability ([9]; first compound 0.2 µM) was 0.976 and the relative viability ([9]; first compound 0.6325 µM) was 1.19. It also gave a relative viability ([9]; first compound 2 µM) of 0.999, a relative viability ([10]; first compound 0.02 µM) of 1.1 and a relative viability ([10]; first compound 0.2 µM) of 0.966. It also gave a relative viability ([10]; first compound 0.6325 µM) of 0.923, a relative viability ([10]; first compound 2 µM) of 0.933 and a relative viability ([11]; first compound 0.02 µM) of 0.733. It also gave a relative viability ([11]; first compound 0.2 µM) of 0.779, a relative viability ([11]; first compound 0.6325 µM) of 1.08 and a relative viability ([11]; first compound 2 µM) of 0.875. For the same compound, the relative viability ([12]; first compound 0.02 µM) was 0.979, the relative viability ([12]; first compound 0.2 µM) was 0.846 and the relative viability ([12]; first compound 0.6325 µM) was 0.993. It also gave a relative viability ([12]; first compound 2 µM) of 0.964, a relative viability ([13]; first compound 0.02 µM) of 0.456 and a relative viability ([13]; first compound 0.2 µM) of 0.402. The relative viability ([13]; first compound 0.6325 µM) was 0.401, the relative viability ([13]; first compound 2 µM) was 0.201 and the relative viability ([14]; first compound 0.02 µM) was 1.15. It also gave a relative viability ([14]; first compound 0.2 µM) of 0.68, a relative viability ([14]; first compound 0.6325 µM) of 1.21 and a relative viability ([14]; first compound 2 µM) of 0.542. It also gave a relative viability ([15]; first compound 0.02 µM) of 1.01, a relative viability ([15]; first compound 0.2 µM) of 1.01 and a relative viability ([15]; first compound 0.6325 µM) of 0.417. The relative viability ([15]; first compound 2 µM) was 0.198, the relative viability ([16]; first compound 0.02 µM) was 1.01 and the relative viability ([16]; first compound 0.2 µM) was 0.804. The relative viability ([16]; first compound 0.6325 µM) was 1.25, the relative viability ([16]; first compound 2 µM) was 1.1 and the relative viability ([17]; first compound 0.02 µM) was 1.11. It also gave a relative viability ([17]; first compound 0.2 µM) of 1.12, a relative viability ([17]; first compound 0.6325 µM) of 1.11 and a relative viability ([17]; first compound 2 µM) of 1.03. It also gave a relative viability ([18]; first compound 0.02 µM) of 1.17, a relative viability ([18]; first compound 0.2 µM) of 1.1 and a relative viability ([18]; first compound 0.6325 µM) of 0.983. The relative viability ([18]; first compound 2 µM) was 0.981, the relative viability ([19]; first compound 0.02 µM) was 0.952 and the relative viability ([19]; first compound 0.2 µM) was 0.711. It also gave a relative viability ([19]; first compound 0.6325 µM) of 0.925, a relative viability ([19]; first compound 2 µM) of 0.682 and a relative viability ([20]; first compound 0.02 µM) of 1.2. It also gave a relative viability ([20]; first compound 0.6325 µM) of 1.1, a relative viability ([20]; first compound 2 µM) of 0.984 and a relative viability ([21]; first compound 0.02 µM) of 1.37. It also gave a relative viability ([21]; first compound 0.2 µM) of 0.902, a relative viability ([21]; first compound 0.6325 µM) of 1.09 and a relative viability ([21]; first compound 2 µM) of 1.08. It also gave a relative viability ([22]; first compound 0.02 µM) of 0.515, a relative viability ([22]; first compound 0.2 µM) of 0.393 and a relative viability ([22]; first compound 0.6325 µM) of 0.302. For the same compound, the relative viability ([22]; first compound 2 µM) was 0.0997.
